# Read-outs that look alike come from different tables or passages of the source. Where a SMILES comes first, the peptide text is derived from it. [ ]: non-standard residue; d: D form. βAla = NCCC(=O)O
# Key:
# Assay type in all cases: in vitro ADME, human
# [1] = Soluble peptide degradation, Media condition (cell-conditioned media, LC-MS); conditions: 24 h, LC-MS, ratio to βFβA6
# Procedure, shortened: (§1)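 Pooled peptide library added to medium conditioned by hUVECs or hMSCs with cells removed. Fraction remaining after 24 h measured by LC-MS (positive-ion ESI). Value is peptide peak area relative to 50 µM non-degradable βFβA6 internal standard.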
# [2] = as above; conditions: 24 h, LC-MS, ratio to βFβA6; remark: listed apart in the source
# Procedure, shortened: as §1
# hMSCs = assay: Soluble peptide degradation, Cells condition (LC-MS); conditions: Figure 3C; individually synthesized soluble peptide, 50 µM, media on hMSCs; 24 h; LC-MS, ratio to βFβA6; N = 6
# Procedure, shortened: (§2)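 Pooled synthetic TAILS-derived peptides added to hUVEC or hMSC cultures (Cells) or cell-free conditioned media (Media); MMP-14 inhibitor NSC 405 020 at 10 µM final. Samples taken at 0 and 24 h, acidified, analysed by LC-MS; peak areas normalised to 50 µM βFβA6 internal standard, 24 h/0 h gives fraction remaining.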
# [3] = as above; conditions: human, 24 h, LC-MS, ratio to βFβA6
# Procedure, shortened: as §2
# hUVECs = assay: as above; conditions: Figure 3B heatmap; split-and-pool libraries KLVADX1X2ASAE in media on hUVECs; 24 h; LC-MS, ratio to βFβA6; N = 2
# Procedure, shortened: as §2
# MMP-14 = assay: as above; conditions: human, with NSC 405 020 (MMP-14 inhibitor), Figure 3C, 50 µM peptide, 24 h, LC-MS, N = 6
# Procedure, shortened: as §2
smiles,measurement,setting,value
CC(=O)NCCC(=O)N[C@@H](CCCCN)C(=O)N[C@@H](CC(C)C)C(=O)N[C@H](C(=O)N[C@@H](C)C(=O)N[C@@H](CC(=O)O)C(=O)N[C@@H](Cc1ccc(O)cc1)C(=O)N[C@@H](Cc1c[nH]c2ccccc12)C(=O)N[C@@H](C)C(=O)N[C@@H](CO)C(=O)N[C@@H](C)C(=O)N[C@@H](CCC(=O)O)C(=O)NCCC(N)=O)C(C)C [KLVAD-YW] (Ac-[βAla]KLVADYWASAE[βAla]-NH2),Fraction of peptide remaining after 24 hours: hMSC Media,"[1]; Figure 3C, individually synthesized soluble peptide, 50 µM, hMSC-conditioned media without cells, N = 6",0.91
same,remaining at 24 h,"[1]; human, hMSC-conditioned media without cells (Media condition), Figure 3B heatmap, split-and-pool libraries KLVADX1X2ASAE in hMSC-conditioned media without cells, N = 2, read-out: Fraction of peptide remaining after 24 hours: hMSC Media",78%
same,Fraction of peptide remaining after 24 hours: hUVEC Media,"[2]; Figure 3B heatmap, split-and-pool libraries KLVADX1X2ASAE in hUVEC-conditioned media without cells, N = 2",0.96
same,Fraction of peptide remaining after 24 hours: hUVEC Media,"[2]; Figure 3C, individually synthesized soluble peptide, 50 µM, hUVEC-conditioned media without cells, N = 6",0.92
same,Fraction of peptide remaining after 24 hours: hMSC Cells,hMSCs,0.4
same,remaining at 24 h,"[3]; hMSCs in culture with fresh media (Cells condition), Figure 3B heatmap, split-and-pool libraries KLVADX1X2ASAE (19 or 38 peptides per library) in media on hMSCs, N = 2, read-out: Fraction of peptide remaining after 24 hours: hMSC Cells",53%
same,"remaining at 24 h, 50 µM","[3]; hUVECs in culture with fresh media (Cells condition), Figure 3C, individually synthesized soluble peptide, 50 µM, media on hUVECs, N = 6, read-out: Fraction of peptide remaining after 24 hours: hUVEC Cells",72%
same,Fraction of peptide remaining after 24 hours: hUVEC Cells,hUVECs,0.86
same,"remaining at 24 h, 50 µM","MMP-14; media on hMSCs with MMP-14 inhibitor NSC 405 020 10 µM, read-out: Fraction of peptide remaining after 24 hours: hMSC +Inhibitor",76%
same,"remaining at 24 h, 50 µM","MMP-14; media on hUVECs with MMP-14 inhibitor NSC 405 020 10 µM, read-out: Fraction of peptide remaining after 24 hours: hUVEC +Inhibitor",98%
